# Data as given in patent US6479480B1, “Phenylindole derivatives as 5-ht2a receptor ligands” (Merck Sharp & Dohme Ltd., priority 1998, dated 2002).
# Experiments:
# [1] = tested on: schizophrenic patients; conditions: multicentre, placebo-controlled study; cited from earlier work
# [2] = tested on: animal models; conditions: preclinical studies; cited from earlier work
# [3] = target: human dopamine D2 receptor (Homo sapiens, UniProt P14416); conditions: cited from earlier work
# Sequence of human dopamine D2 receptor (P14416 whole entry): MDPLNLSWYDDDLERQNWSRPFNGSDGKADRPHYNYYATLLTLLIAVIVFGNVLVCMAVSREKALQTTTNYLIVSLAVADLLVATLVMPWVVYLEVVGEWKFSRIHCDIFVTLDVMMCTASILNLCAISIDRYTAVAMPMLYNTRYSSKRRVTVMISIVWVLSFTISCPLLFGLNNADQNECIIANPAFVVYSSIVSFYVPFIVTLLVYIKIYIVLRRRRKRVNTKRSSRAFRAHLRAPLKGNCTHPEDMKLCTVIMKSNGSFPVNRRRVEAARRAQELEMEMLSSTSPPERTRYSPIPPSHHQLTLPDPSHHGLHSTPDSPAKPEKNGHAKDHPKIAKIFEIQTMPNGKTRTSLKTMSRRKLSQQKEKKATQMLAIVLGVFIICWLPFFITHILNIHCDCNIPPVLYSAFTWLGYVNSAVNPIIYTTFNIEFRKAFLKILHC
SMILES,melting point [°C],other results
O=C(O)C(=O)O.c1ccc(CCN2CCC(Cc3c(-c4ccccc4)[nH]c4ccccc34)C2)cc1 (centres unmarked),100,
O=C(O)C(=O)O.c1ccc(CCN2CCCC(Cc3c(-c4ccccc4)[nH]c4ccccc34)C2)cc1 (centres unmarked) (hydrate or solvate),128,
O=C(O)C(=O)O.c1ccc(CN2CCCC2Cc2c(-c3ccccc3)[nH]c3ccccc23)cc1 (centres unmarked),210,
CN1CCNC[C@@H]1Cc1c(-c2cccc(F)c2)[nH]c2cc(F)ccc12.Cl.Cl,200,
CN1C2CCC(C2)C1Cc1c(-c2ccccc2)[nH]c2ccccc12.Cl (centres unmarked),176,
CN1CCC[C@H]1Cc1c(-c2ccccc2)[nH]c2ccccc12,133,
CN1CCC[C@@H]1Cc1c(-c2ccccc2)[nH]c2ccccc12,132,
CN1C2CCC(CC2)C1Cc1c(-c2ccccc2)[nH]c2ccccc12.O=C(O)C(=O)O (centres unmarked),193,
CN1CCN[C@@H](Cc2c(-c3cccc(F)c3)[nH]c3cc(F)ccc23)C1.Cl.Cl (hydrate or solvate),228,
CN1CCN(C)[C@@H](Cc2c(-c3ccccc3)[nH]c3c(Cl)cccc23)C1.Cl.Cl,260,
CN1CCN(C)[C@@H](Cc2c(-c3ccccc3)[nH]c3ccccc23)C1.Cl.Cl,253,
O=C(O)C(=O)O.c1ccc(CN2CCC(Cc3c(-c4ccccc4)[nH]c4ccccc34)C2)cc1 (centres unmarked),95,
O=C(O)C(=O)O.c1ccc(CCN2CCCC2Cc2c(-c3ccccc3)[nH]c3ccccc23)cc1 (centres unmarked),182,
"COc1cccc(C(O)C2CCN(CCc3ccc(F)cc3)CC2)c1OC (stereo not drawn) [MDL-100,907, (+)-α-(2,3-dimethoxyphenyl)-1-[2-(4-fluorophenyl)-ethyl]-4-piperidinemethanol]",,efficacy for antipsychotic potential [1]: demonstrated efficacy; neurological adverse effects [1]: no neurological adverse effects; block of apomorphine-induced stereotyped behaviour [2]: failed to block apomorphine-induced stereotyped behaviour; activity at the human dopamine D2 receptor [3]: essentially devoid of activity

# The next lines start with results.
melting point [°C],SMILES,other results
232,O=C(O)C(=O)O.c1ccc(CCN2CCCCC2Cc2c(-c3ccccc3)[nH]c3ccccc23)cc1 (centres unmarked),
185,COCCN1CCCCC1Cc1c(-c2ccccc2)[nH]c2ccccc12.O=C(O)C(=O)O (centres unmarked),
234,CN1CCCC(Cc2c(-c3ccccc3)[nH]c3ccccc23)C1.O=C(O)C(=O)O (centres unmarked) (hydrate or solvate),
183,C[C@@H]1CC[C@H](Cc2c(-c3ccccc3)[nH]c3ccccc23)N1C.O=C(O)C(=O)O (relative stereo),
235,O=C(O)C(=O)O.c1ccc(CN2CCCCC2Cc2c(-c3ccccc3)[nH]c3ccccc23)cc1 (centres unmarked),
135,CN1CCCC[C@H]1Cc1c(-c2ccccc2)[nH]c2ccccc12,
150,CN1CCCC[C@@H]1Cc1c(-c2ccccc2)[nH]c2ccccc12 (hydrate or solvate),
197,CCN1CCCCC1Cc1c(-c2ccccc2)[nH]c2ccccc12.O=C(O)C(=O)O (centres unmarked),
80,CN1CCC(Cc2c(-c3ccccc3)[nH]c3ccccc23)C1.O=C(O)C(=O)O (centres unmarked),
